Here are results for two molecules from article PMC5939191 (Chemical Science, 2018).

The nature of the data set: Apparent aqueous solubility by the dissolution method. The settings on record: water; for solubility: 22 °C, thermodynamic from solid.

The structures appear in SMILES notation. Structures can show the parent of a compound that is named as a salt.

The term solubility denotes the dissolved amount per volume that the medium holds.

With `O=c1n(CCCN2CCN(c3cccc(Cl)c3)CC2)nc2ccccn12` [[TrH]Cl, Trazodone hydrochloride], the solubility turned out to be 38.5 ± 0.2 mg/mL.
With `CCCC[N+]1(C)[C@@H]2C[C@@H](OC(=O)[C@H](CO)c3ccccc3)C[C@H]1[C@@H]1O[C@@H]12` (stereo partly drawn) [[Bs]Br, Butyl scopolammonium bromide], the “solubility (unusually high)” value is listed as “more than one gram per milliliter” and the solubility came out at 1800 ± 200 mg/mL.
